Counter-ions that a name gives are not always drawn. Like-named read-outs stand apart in the source and are kept apart here. Where a SMILES comes first, the peptide text is derived from it. The star is where a group is joined. Cbz = O=C(OCc1ccccc1)*; CH2F = FC*
What was measured:
[1] = target: T1, SARS-CoV-2 PLpro (nsp3 1564–1878) (Severe acute respiratory syndrome coronavirus 2, UniProt P0DTD1); assay: biochemical; parameters: FRET-quenched peptide (Pro3) cleavage by PLpro, 10 min pre-incubation, slope over 20 min, normalised to no-compound control; conditions: high concentration screen, read-out: % of control remaining
[2] = target: T1, SARS-CoV-2 PLpro (nsp3 1564–1878); assay: biochemical; parameters: FRET-quenched peptide (Pro3) cleavage by PLpro, 10 min pre-incubation, slope over 20 min, normalised to no-compound control; conditions: low concentration screen, read-out: % of control remaining

OC[C@H]1O[C@@H](n2cnc3c(O)nc(O)nc32)[C@H](O)[C@@H]1O [Xanthosine]
remaining activity at 3.75 µM ([1]; Well no.=7397): 107%
remaining activity at 1.25 µM ([2]; Well no.=7397): 106%

COc1c2occc2cc2ccc(=O)oc12 [Xanthotoxin]
remaining activity at 3.75 µM ([1]; Well no.=3459): 106%
remaining activity at 1.25 µM ([2]; Well no.=3459): 104%

Cc1cccc(C)c1NC1=NCCCS1 [Xylazine (hydrochloride)]
remaining activity at 3.75 µM ([1]; Well no.=6847): 95.9%
remaining activity at 1.25 µM ([2]; Well no.=6847): 101%

Cc1cccc(C)c1NC1=NCCCS1 [Xylazine]
remaining activity at 3.75 µM ([1]; Well no.=1652): 106%
remaining activity at 1.25 µM ([2]; Well no.=1652): 103%

Cc1cc(C(C)(C)C)cc(C)c1CC1=NCCN1 [Xylometazoline (hydrochloride)]
remaining activity at 3.75 µM ([1]; Well no.=6281): 106%
remaining activity at 1.25 µM ([2]; Well no.=6281): 106%

Cc1cc(C(C)(C)C)cc(C)c1CC1=NCCN1 [Xylometazoline hydrochloride]
remaining activity at 3.75 µM ([1]; Well no.=1484): 96.2%
remaining activity at 1.25 µM ([2]; Well no.=1484): 96.8%

O=C[C@H](O)[C@@H](O)[C@H](O)CO [Xylose]
remaining activity at 3.75 µM ([1]; Well no.=6351): 105%
remaining activity at 3.75 µM ([1]; Well no.=8144): 96.9%
remaining activity at 1.25 µM ([2]; Well no.=6351): 103%
remaining activity at 1.25 µM ([2]; Well no.=8144): 99.9%

C[C@@H](N)[C@H]1CC[C@H](C(=O)Nc2ccncc2)CC1 [Y-27632 dihydrochloride - trans-4-[(1R)-1-Aminoethyl]-N-4-pyridinylcyclohexanecarboxamide dihydrochloride]
remaining activity at 3.75 µM ([1]; Well no.=2350): 104%
remaining activity at 1.25 µM ([2]; Well no.=2350): 105%

CCOC(=O)c1[nH]c2cc(Cl)ccc2c1C(C(=O)NC(C)(C)C)N(C=O)Cc1ccc(Cl)cc1 (stereo not shown) [YH239-EE]
remaining activity at 3.75 µM ([1]; Well no.=6392): 97.4%
remaining activity at 1.25 µM ([2]; Well no.=6392): 98.6%

COc1ccc(C(=O)CC2(O)C(=O)Nc3c(Cl)ccc(Cl)c32)cc1 (stereo not shown) [YK-4-279]
remaining activity at 3.75 µM ([1]; Well no.=6444): 98.7%
remaining activity at 1.25 µM ([2]; Well no.=6444): 97.8%

O=c1ccccn1CC1(O)CCN(Cc2ccccc2)CC1 [YL0919]
remaining activity at 3.75 µM ([1]; Well no.=8009): 98.2%
remaining activity at 1.25 µM ([2]; Well no.=8009): 101%

COCC[n+]1c2c(n(Cc3cnccn3)c1C)C(=O)c1ccccc1C2=O [YM-155]
remaining activity at 3.75 µM ([1]; Well no.=6678): 91.4%
remaining activity at 1.25 µM ([2]; Well no.=6678): 94.8%

C[C@H](NC(=O)Cc1cc(F)cc(F)c1)C(=O)N[C@@H]1C(=O)N(C)c2ccccc2-c2ccccc21 [YO-01027]
remaining activity at 3.75 µM ([1]; Well no.=4687): 105%
remaining activity at 1.25 µM ([2]; Well no.=4687): 101%

COc1ccc(CCN(C)CCc2ccc(OC)c(OC)c2)cc1OC [YS-035 hydrochloride]
remaining activity at 3.75 µM ([1]; Well no.=1246): 102%
remaining activity at 1.25 µM ([2]; Well no.=1246): 103%

Cc1ccc(NC(=O)C(=O)NC2CC(C)(C)NC(C)(C)C2)cc1 [YYA-021]
remaining activity at 3.75 µM ([1]; Well no.=8084): 106%
remaining activity at 1.25 µM ([2]; Well no.=8084): 102%

COc1ccc(/C=C/c2cc(OC)cc(=O)o2)cc1 [Yangonin]
remaining activity at 3.75 µM ([1]; Well no.=3765): 90.6%
remaining activity at 1.25 µM ([2]; Well no.=3765): 90.2%

COC(=O)[C@@H]1[C@H]2C[C@H]3c4[nH]c5ccccc5c4CCN3C[C@@H]2CC[C@@H]1O [Yohimbine (Hydrochloride)]
remaining activity at 3.75 µM ([1]; Well no.=8337): 97.4%
remaining activity at 1.25 µM ([2]; Well no.=8337): 103%

COC(=O)[C@@H]1[C@H]2C[C@H]3c4[nH]c5ccccc5c4CCN3C[C@@H]2CC[C@@H]1O [Yohimbine hydrochloride]
remaining activity at 3.75 µM ([1]; Well no.=1198): 104%
remaining activity at 1.25 µM ([2]; Well no.=1198): 105%

COC(=O)CC[C@H](NC(=O)[C@H](CC(=O)OC)NC(=O)OCc1ccccc1)C(=O)N[C@H](C(=O)N[C@@H](CC(=O)OC)C(=O)CF)C(C)C [Z-DEVD-FMK]
remaining activity at 3.75 µM ([1]; Well no.=7172): 99.7%
remaining activity at 3.75 µM ([1]; Well no.=7636): 91.3%
remaining activity at 1.25 µM ([2]; Well no.=7172): 102%
remaining activity at 1.25 µM ([2]; Well no.=7636): 95.2%

CC[C@H](C)[C@H](NC(=O)OCc1ccccc1)C(=O)N[C@@H](CCC(=O)OC)C(=O)N[C@H](C(=O)N[C@@H](CC(=O)OC)C(=O)CF)[C@@H](C)O [Z-IETD-FMK] (Cbz-IE(OMe)TD(OMe)-CH2F)
remaining activity at 3.75 µM ([1]; Well no.=8262): 96.2%
remaining activity at 1.25 µM ([2]; Well no.=8262): 98.1%

O=C(N[C@@H](Cc1ccccc1)C(=O)CCl)OCc1ccccc1 [Z-L-Phe chloromethyl ketone]
remaining activity at 3.75 µM ([1]; Well no.=238): 101%
remaining activity at 1.25 µM ([2]; Well no.=238): 100%

COC(=O)C[C@H](NC(=O)[C@H](C)NC(=O)[C@@H](NC(=O)OCc1ccccc1)C(C)C)C(=O)CF [Z-VAD(OMe)-FMK] (Cbz-Val-Ala-Asp(OMe)-CH2F)
remaining activity at 3.75 µM ([1]; Well no.=7116): 94.5%
remaining activity at 3.75 µM ([1]; Well no.=8598): 100%
remaining activity at 1.25 µM ([2]; Well no.=7116): 101%
remaining activity at 1.25 µM ([2]; Well no.=8598): 100%

Cc1cc(C)nc(NS(=O)(=O)c2ccc(NC(=S)NC(=O)COc3ccc(Br)cc3Cl)cc2)n1 [ZCL278]
remaining activity at 3.75 µM ([1]; Well no.=7884): 99.2%
remaining activity at 3.75 µM ([1]; Well no.=8389): 96.3%
remaining activity at 1.25 µM ([2]; Well no.=7884): 98.2%
remaining activity at 1.25 µM ([2]; Well no.=8389): 102%

OCCOCCN1CCN(Cc2cccc(Oc3ccccc3)c2)CC1 [ZK756326 (dihydrochloride)]
remaining activity at 3.75 µM ([1]; Well no.=6178): 101%
remaining activity at 1.25 µM ([2]; Well no.=6178): 99.6%
remaining activity at 1.25 µM ([2]; Well no.=8117): 104%

Cc1cc(N=Nc2ccc3c(c2)CCC(=O)N3)c(N)cc1O [ZL0420]
remaining activity at 3.75 µM ([1]; Well no.=8468): 95.2%
remaining activity at 1.25 µM ([2]; Well no.=8468): 103%

CC(C)N(CCC(=O)c1ccc2ccccc2c1)Cc1ccccc1 [ZM39923 (hydrochloride)]
remaining activity at 3.75 µM ([1]; Well no.=8170): 98%
remaining activity at 1.25 µM ([2]; Well no.=8170): 104%

Nc1nc(NCCc2ccc(O)cc2)nc2nc(-c3ccco3)nn12 [ZM241385]
remaining activity at 3.75 µM ([1]; Well no.=7042): 104%
remaining activity at 3.75 µM ([1]; Well no.=8411): 88.3%
remaining activity at 1.25 µM ([2]; Well no.=7042): 106%
remaining activity at 1.25 µM ([2]; Well no.=8411): 90.6%

CC(C)N(CCC(=O)c1ccc2ccccc2c1)Cc1ccccc1 [ZM 39923 hydrochloride - 3-Benzylisopropylamino-1-naphthalen-2-yl-propan-1-one hydrochloride]
remaining activity at 3.75 µM ([1]; Well no.=2390): 98.1%
remaining activity at 1.25 µM ([2]; Well no.=2390): 96.3%

Cc1cc(F)c(Nc2ncnc3cc(OCc4ccccc4)ccc23)cc1O [ZM 323881 hydrochloride - 5-((7-Benzyloxyquinazolin-4-yl)amino)-4-fluoro-2-methylphenol hydrochloride]
remaining activity at 3.75 µM ([1]; Well no.=2538): 92%
remaining activity at 1.25 µM ([2]; Well no.=2538): 91.5%

Cc1ccc(NC(=O)c2cccc(N(C)C)c2)cc1NC(=O)c1ccc(O)cc1 [ZM 336372]
remaining activity at 3.75 µM ([1]; Well no.=5878): 102%
remaining activity at 1.25 µM ([2]; Well no.=5878): 103%

COc1cc2c(Nc3ccc(NC(=O)c4ccccc4)cc3)ncnc2cc1OCCCN1CCOCC1 [ZM 447439 - N-[4-[[6-Methoxy-7-[3-(4-morpholinyl)propoxy]-4-quinazolinyl]amino]phenyl]benzamide]
remaining activity at 3.75 µM ([1]; Well no.=2534): 96.9%
remaining activity at 1.25 µM ([2]; Well no.=2534): 97.3%
